According to the CheMixHub viscosity set:

Experiment: xn = mol fraction of the nth substance listed

Clc1ccccc1 + Cc1ccccc1
Conditions	viscosity [mPa·s]
293.15 K, 101 kPa, x1 = 0.0994	0.6134
293.15 K, 101 kPa, x1 = 0.2021	0.635
293.15 K, 101 kPa, x1 = 0.2979	0.6571
293.15 K, 101 kPa, x1 = 0.3973	0.6775
293.15 K, 101 kPa, x1 = 0.5013	0.7014
293.15 K, 101 kPa, x1 = 0.6023	0.7232
293.15 K, 101 kPa, x1 = 0.7024	0.7433
293.15 K, 101 kPa, x1 = 0.8007	0.7655
293.15 K, 101 kPa, x1 = 0.9047	0.786
293.15 K, 101 kPa, x2 = 0.2	0.751
293.15 K, 101 kPa, x2 = 0.4	0.709
293.15 K, 101 kPa, x2 = 0.6	0.667
293.15 K, 101 kPa, x2 = 0.8	0.626
294.55 K, 101.33 kPa, x1 = 0.2	0.6717
294.55 K, 101.33 kPa, x1 = 0.7	0.7968
294.75 K, 101.33 kPa, x1 = 0.3	0.6949
294.85 K, 101.33 kPa, x1 = 0.1	0.6367
295.05 K, 101.33 kPa, x1 = 0.4	0.7214
298.15 K, 101 kPa, x1 = 0.0994	0.5773
298.15 K, 101 kPa, x1 = 0.2021	0.5971
298.15 K, 101 kPa, x1 = 0.2979	0.6179
298.15 K, 101 kPa, x1 = 0.3973	0.6368
298.15 K, 101 kPa, x1 = 0.5013	0.6596
298.15 K, 101 kPa, x1 = 0.6023	0.6799
298.15 K, 101 kPa, x1 = 0.7024	0.6984
298.15 K, 101 kPa, x1 = 0.8007	0.7195
298.15 K, 101 kPa, x1 = 0.9047	0.7386
298.15 K, 101 kPa, x2 = 0.101	0.7515
298.15 K, 101 kPa, x2 = 0.2035	0.7315
298.15 K, 101 kPa, x2 = 0.243	0.687
298.15 K, 101 kPa, x2 = 0.3026	0.7086
298.15 K, 101 kPa, x2 = 0.4005	0.6929
298.15 K, 101 kPa, x2 = 0.45	0.646
298.15 K, 101 kPa, x2 = 0.5004	0.6721
298.15 K, 101 kPa, x2 = 0.6014	0.6486
298.15 K, 101 kPa, x2 = 0.643	0.608
298.15 K, 101 kPa, x2 = 0.7008	0.6321
298.15 K, 101 kPa, x2 = 0.803	0.577
298.15 K, 101 kPa, x2 = 0.8048	0.6088
298.15 K, 101 kPa, x2 = 0.8995	0.592
303.15 K, 101 kPa, x1 = 0.0994	0.5443
303.15 K, 101 kPa, x1 = 0.2021	0.5628
303.15 K, 101 kPa, x1 = 0.2979	0.5824
303.15 K, 101 kPa, x1 = 0.3973	0.5999
303.15 K, 101 kPa, x1 = 0.5013	0.6212
303.15 K, 101 kPa, x1 = 0.6023	0.6405
303.15 K, 101 kPa, x1 = 0.7024	0.6579
303.15 K, 101 kPa, x1 = 0.8007	0.6779
303.15 K, 101 kPa, x1 = 0.9047	0.6957
303.15 K, 101 kPa, x2 = 0.0961	0.6999
303.15 K, 101 kPa, x2 = 0.101	0.7125
303.15 K, 101 kPa, x2 = 0.193	0.6791
303.15 K, 101 kPa, x2 = 0.2035	0.6925
303.15 K, 101 kPa, x2 = 0.2907	0.6641
303.15 K, 101 kPa, x2 = 0.3026	0.6713
303.15 K, 101 kPa, x2 = 0.3894	0.6454
303.15 K, 101 kPa, x2 = 0.4005	0.6547
303.15 K, 101 kPa, x2 = 0.4889	0.63
303.15 K, 101 kPa, x2 = 0.5004	0.637
303.15 K, 101 kPa, x2 = 0.5893	0.6109
303.15 K, 101 kPa, x2 = 0.6014	0.6131
303.15 K, 101 kPa, x2 = 0.6906	0.5935
303.15 K, 101 kPa, x2 = 0.7008	0.5992
303.15 K, 101 kPa, x2 = 0.7928	0.5753
303.15 K, 101 kPa, x2 = 0.8048	0.577
303.15 K, 101 kPa, x2 = 0.8959	0.5561
303.15 K, 101 kPa, x2 = 0.8995	0.5584
303.25 K, 101.33 kPa, x1 = 0.7	0.7203
303.35 K, 101.33 kPa, x1 = 0.3	0.6272
303.55 K, 101.33 kPa, x1 = 0.1	0.5816
303.75 K, 101.33 kPa, x1 = 0.4	0.6426
304.15 K, 101.33 kPa, x1 = 0.2	0.6008
308.15 K, 101 kPa, x2 = 0.101	0.6704
308.15 K, 101 kPa, x2 = 0.2035	0.6518
308.15 K, 101 kPa, x2 = 0.3026	0.6334
308.15 K, 101 kPa, x2 = 0.4005	0.6181
308.15 K, 101 kPa, x2 = 0.5004	0.5983
308.15 K, 101 kPa, x2 = 0.6014	0.5769
308.15 K, 101 kPa, x2 = 0.7008	0.5641
308.15 K, 101 kPa, x2 = 0.8048	0.5447
308.15 K, 101 kPa, x2 = 0.8995	0.5279
313.05 K, 101.33 kPa, x1 = 0.3	0.5636
313.15 K, 101 kPa, x1 = 0.0994	0.4872
313.15 K, 101 kPa, x1 = 0.2021	0.503
313.15 K, 101 kPa, x1 = 0.2979	0.5205
313.15 K, 101 kPa, x1 = 0.3973	0.536
313.15 K, 101 kPa, x1 = 0.5013	0.5551
313.15 K, 101 kPa, x1 = 0.6023	0.5721
313.15 K, 101 kPa, x1 = 0.7024	0.5874
313.15 K, 101 kPa, x1 = 0.8007	0.6056
313.15 K, 101 kPa, x1 = 0.9047	0.6216
313.15 K, 101 kPa, x2 = 0.0961	0.6302
313.15 K, 101 kPa, x2 = 0.101	0.6317
313.15 K, 101 kPa, x2 = 0.193	0.6128
313.15 K, 101 kPa, x2 = 0.2	0.597
313.15 K, 101 kPa, x2 = 0.2035	0.6152
313.15 K, 101 kPa, x2 = 0.2907	0.5947
313.15 K, 101 kPa, x2 = 0.3026	0.5974
313.15 K, 101 kPa, x2 = 0.3894	0.5789
313.15 K, 101 kPa, x2 = 0.4	0.564
313.15 K, 101 kPa, x2 = 0.4005	0.5833
313.15 K, 101 kPa, x2 = 0.4889	0.5763
313.15 K, 101 kPa, x2 = 0.5004	0.5662
313.15 K, 101 kPa, x2 = 0.5893	0.5475
313.15 K, 101 kPa, x2 = 0.6	0.53
313.15 K, 101 kPa, x2 = 0.6014	0.545
313.15 K, 101 kPa, x2 = 0.6906	0.5414
313.15 K, 101 kPa, x2 = 0.7008	0.5312
313.15 K, 101 kPa, x2 = 0.7928	0.5159
313.15 K, 101 kPa, x2 = 0.8	0.498
313.15 K, 101 kPa, x2 = 0.8048	0.5134
313.15 K, 101 kPa, x2 = 0.8959	0.5005
313.15 K, 101 kPa, x2 = 0.8995	0.4983
313.25 K, 101.33 kPa, x1 = 0.1	0.5257
313.25 K, 101.33 kPa, x1 = 0.4	0.5837
313.35 K, 101.33 kPa, x1 = 0.2	0.5458
313.65 K, 101.33 kPa, x1 = 0.7	0.6385
322.55 K, 101.33 kPa, x1 = 0.3	0.5132
322.75 K, 101.33 kPa, x1 = 0.1	0.478
322.85 K, 101.33 kPa, x1 = 0.2	0.4964
323.15 K, 101 kPa, x2 = 0.0961	0.5575
323.15 K, 101 kPa, x2 = 0.193	0.5432
323.15 K, 101 kPa, x2 = 0.2907	0.531
323.15 K, 101 kPa, x2 = 0.3894	0.5111
323.15 K, 101 kPa, x2 = 0.4889	0.5008
323.15 K, 101 kPa, x2 = 0.5893	0.4829
323.15 K, 101 kPa, x2 = 0.6906	0.4715
323.15 K, 101 kPa, x2 = 0.7928	0.4539
323.15 K, 101 kPa, x2 = 0.8959	0.4396
323.15 K, 101.33 kPa, x1 = 0.4	0.5282
